Consider one compound from patent publication US10196393B2, “JAK inhibitors containing a 4-membered heterocyclic amide” (THERAVANCE BIOPHARMA R&D IP, LLC, priority 2017, dated 2019).

For assay [1], the target named is JAK3 (Homo sapiens (Human), UniProt P52333). The assay is described as follows: Biochemical JAK kinase assay (LanthaScreen), JAK3. Conditions: converted from pIC50 with Cheng-Prusoff equation. The procedure:
Assay 1: Biochemical JAK Kinase Assays
A panel of four LanthaScreen JAK biochemical assays (JAK1, 2, 3 and Tyk2) were carried in a common kinase reaction buffer (50 mM HEPES, pH 7.5, 0.01% Brij-35, 10 mM MgCl2, and 1 mM EGTA). Recombinant GST-tagged JAK enzymes and a GFP-tagged STAT1 peptide substrate were obtained from Life Technologies.
Serially diluted compounds were pre-incubated with each of the four JAK enzymes and the substrate in white 384-well microplates (Corning) at ambient temperature for 1 h. ATP was subsequently added to initiate the kinase reactions in 10 μL total volume, with 1% DMSO. […] The plates were allowed to incubate at ambient temperature for 1 h before being read on the EnVision reader (Perkin Elmer).
For dose-response analysis, percent inhibition data were plotted vs. compound concentrations, and IC50 values were determined from a 4-parameter robust fit model with the Prism software (GraphPad Software). Results were expressed as pIC50 (negative logarithm of IC50) and subsequently converted to pKi (negative logarithm of dissociation constant, Ki) using the Cheng-Prusoff equation.

Assay [2] concerns IL-13 induced pSTAT6 induction in lung tissue. The assay is described as follows: Murine model of IL-13 induced pSTAT6 induction in lung tissue. Format: in vivo. Conditions: mouse lung, 1 mg/mL 50 μL oral aspiration, IL-13 challenge 4 h after dose, lungs at 5 hours. From the text: Assay 4: Murine (Mouse) Model of IL-13 Induced pSTAT6 Induction in Lung Tissue
Il-13 is an important cytokine underlying the pathophysiology of asthma (Kudlacz et al. Eur. J. Pharmacol, 2008, 582,154-161). IL-13 binds to cell surface receptors activating members of the Janus family of kinases (JAK) which then phosphorylate STAT6 and subsequently activates further transcription pathways. In the described model, a dose of IL-13 was delivered locally into the lungs of mice to induce the phosphorylation of STAT6 (pSTAT6) which is then measured as the endpoint.
Adult balb/c mice from Harlan were used in the assay. On the day of study, animals were lightly anesthetized with isoflurane and administered either vehicle or test compound (1 mg/mL, 50 μL total volume over several breaths) via oral aspiration. Animals were placed in lateral recumbency post dose and monitored for full recovery from anesthesia before being returned to their home cage. Four hours later, animals were once again briefly anesthetized and challenged with either vehicle or IL-13 (0.03 μg total dose delivered, 50 μL total volume) via oral aspiration before being monitored for recovery from anesthesia and returned to their home cage. One hour after vehicle or IL-13 administration, lungs were collected for both pSTAT6 detection using an anti-pSTAT6 ELISA (rabbit mAb capture/coating antibody; mouse mAb detection/report antibody: anti-pSTAT6-pY641; secondary antibody: anti-mouse IgG-HRP) and analyzed for total drug concentration as described above in Assay 3.
Selected compounds of the invention were tested in the assay. Activity in the model is evidenced by a decrease in the level of pSTAT6 present in the lungs of treated animals at 5 hours compared to the vehicle treated, IL-13 challenged control animals. The difference between the control animals which were vehicle-treated, IL-13 challenged and the control animals which were vehicle-treated, vehicle challenged dictated the 0% and 100% inhibitory effect, respectively, in any given experiment.

For assay [3], the system named is IL-2/anti-CD3 stimulated STAT5 phosphorylation in CD4+ T cells. The assay is described as follows: Cellular JAK potency assay: inhibition of IL-2 stimulated pSTAT5 in CD4+ T cells. Format: cell-based. Particulars: 0.5 h; CD4+ T cells in human PBMCs, 30 min stimulation; read-out: pIC50, inhibition of IL-2 stimulated pSTAT5 (converted). As for the experimental part:
Assay 9: Cellular JAK Potency Assay: Inhibition of IL-2 Stimulated pSTAT5 in CD4+ T Cells
The potency of the test compound for inhibition of interleukin-2 (IL-2)/anti-CD3 stimulated STAT5 phosphorylation was measured in CD4-positive (CD4+) T cells in human peripheral blood mononuclear cells (PBMCs) isolated from human whole blood (Stanford Blood Center) using flow cytometry. Because IL-2 signals through JAK, this assay provides a measure of JAK cellular potency. […]
(2) After cytokine stimulation, cells were fixed with pre warmed fix solution (200 μL; BD Biosciences) for 10 min at 37° C., 5% CO2, washed twice with DPBS buffer (1 mL, Life Technologies), and resuspended in ice cold Perm Buffer III (1000 μL, BD Biosciences) for 30 min at 4° C. […] After incubation, cells were washed twice in FACS buffer before being analyzed using a LSRII flow cytometer (BD Biosciences). To determine the inhibitory potency of test compounds in response to IL-2/anti-CD3, the median fluorescent intensity (MFI) of pSTAT5 was measured in CD4+ T cells. IC50 values were determined from analysis of the inhibition curves of MFI vs compound concentration. Data are expressed as pIC50 (negative decadic logarithm IC50) values.

Sequence of JAK3 (P52333 whole entry): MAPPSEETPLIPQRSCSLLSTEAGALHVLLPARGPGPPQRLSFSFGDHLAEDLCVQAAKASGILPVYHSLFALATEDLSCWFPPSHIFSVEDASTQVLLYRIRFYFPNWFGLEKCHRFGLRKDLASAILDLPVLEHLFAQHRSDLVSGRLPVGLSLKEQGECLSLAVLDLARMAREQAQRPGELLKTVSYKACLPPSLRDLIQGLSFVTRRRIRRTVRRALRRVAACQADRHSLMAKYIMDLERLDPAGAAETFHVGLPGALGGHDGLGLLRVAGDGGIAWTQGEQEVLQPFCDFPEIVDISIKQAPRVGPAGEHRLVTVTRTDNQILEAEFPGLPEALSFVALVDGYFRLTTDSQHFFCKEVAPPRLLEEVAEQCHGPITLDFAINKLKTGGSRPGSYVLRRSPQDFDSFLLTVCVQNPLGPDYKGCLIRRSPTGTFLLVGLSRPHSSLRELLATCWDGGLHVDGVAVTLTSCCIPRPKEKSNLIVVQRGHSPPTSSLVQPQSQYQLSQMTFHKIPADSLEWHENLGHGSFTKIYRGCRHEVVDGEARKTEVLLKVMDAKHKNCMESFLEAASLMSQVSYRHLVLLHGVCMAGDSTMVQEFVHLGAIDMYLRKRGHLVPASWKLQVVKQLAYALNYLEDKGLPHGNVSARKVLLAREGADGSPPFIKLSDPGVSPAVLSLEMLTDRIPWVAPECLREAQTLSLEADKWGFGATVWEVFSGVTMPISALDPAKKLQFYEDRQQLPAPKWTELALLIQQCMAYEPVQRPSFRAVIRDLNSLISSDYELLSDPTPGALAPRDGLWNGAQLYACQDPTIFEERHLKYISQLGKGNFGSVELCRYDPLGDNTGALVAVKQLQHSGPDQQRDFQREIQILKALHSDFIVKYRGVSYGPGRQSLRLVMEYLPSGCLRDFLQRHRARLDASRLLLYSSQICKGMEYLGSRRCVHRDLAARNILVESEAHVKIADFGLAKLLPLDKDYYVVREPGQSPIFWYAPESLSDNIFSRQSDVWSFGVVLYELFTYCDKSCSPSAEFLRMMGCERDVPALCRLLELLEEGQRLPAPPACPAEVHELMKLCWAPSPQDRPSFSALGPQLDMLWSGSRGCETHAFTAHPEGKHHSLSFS

`CCc1cc(O)c(F)cc1-c1ccc2c(-c3nc4c([nH]3)CN(C(C)C)[C@H](C(=O)N3CC(N(C)C)C3)C4)n[nH]c2c1` [Example 2, (S)-(3-(dimethylamino)azetidin-1-yl)(2-(6-(2-ethyl-5-fluoro-4-hydroxyphenyl)-1H-indazol-3-yl)-5-isopropyl-4,5,6,7-tetrahydro-3H-imidazo[4,5-c]pyridin-6-yl)methanone] gave a Ki in assay [1] of 0.1 nM. Besides, the “pSTAT6 inhibition Assay 4” value in assay [2] is “B (B represents between 40% and 60% inhibition)”. In addition, the IC50 in assay [3] is ~50.1 nM.
